Assay results reported in the NIST ThermoML archive (doi:10.1016/j.tca.2012.07.024).
± gives the expanded uncertainty stated by the source.

Assay: xn = mol fraction of the nth substance listed
Conditions: Liquid, Vibrating tube method, x1 = 0.33

C[N+](C)(C)CCO.[Cl-] [choline chloride] + OCCO
mass density (298.15 K, 100 kPa): 1117.4 ± 2.4 kg/m3 | mass density (298.15 K, 5000 kPa): 1119 ± 2.5 kg/m3 | mass density (298.15 K, 10000 kPa): 1120.6 ± 2.5 kg/m3 | mass density (298.15 K, 15000 kPa): 1122.1 ± 2.5 kg/m3 | mass density (298.15 K, 20000 kPa): 1123.6 ± 2.5 kg/m3 | mass density (298.15 K, 25000 kPa): 1125.1 ± 2.5 kg/m3 | mass density (298.15 K, 30000 kPa): 1126.6 ± 2.5 kg/m3 | mass density (298.15 K, 35000 kPa): 1128.1 ± 2.5 kg/m3 | mass density (298.15 K, 40000 kPa): 1129.6 ± 2.6 kg/m3 | mass density (298.15 K, 45000 kPa): 1131 ± 2.6 kg/m3 | mass density (298.15 K, 50000 kPa): 1132.4 ± 2.6 kg/m3 | mass density (303.15 K, 100 kPa): 1114.5 ± 2.4 kg/m3 | mass density (303.15 K, 5000 kPa): 1116.1 ± 2.5 kg/m3 | mass density (303.15 K, 10000 kPa): 1117.7 ± 2.5 kg/m3 | mass density (303.15 K, 15000 kPa): 1119.3 ± 2.5 kg/m3 | mass density (303.15 K, 20000 kPa): 1120.8 ± 2.5 kg/m3 | mass density (303.15 K, 25000 kPa): 1122.3 ± 2.5 kg/m3 | mass density (303.15 K, 30000 kPa): 1123.8 ± 2.5 kg/m3 | mass density (303.15 K, 35000 kPa): 1125.3 ± 2.5 kg/m3 | mass density (303.15 K, 40000 kPa): 1126.8 ± 2.5 kg/m3 | mass density (303.15 K, 45000 kPa): 1128.2 ± 2.6 kg/m3 | mass density (303.15 K, 50000 kPa): 1129.6 ± 2.6 kg/m3 | mass density (308.15 K, 100 kPa): 1111.6 ± 2.4 kg/m3 | mass density (308.15 K, 5000 kPa): 1113.2 ± 2.4 kg/m3 | mass density (308.15 K, 10000 kPa): 1114.8 ± 2.5 kg/m3 | mass density (308.15 K, 15000 kPa): 1116.4 ± 2.5 kg/m3 | mass density (308.15 K, 20000 kPa): 1117.9 ± 2.5 kg/m3 | mass density (308.15 K, 25000 kPa): 1119.5 ± 2.5 kg/m3 | mass density (308.15 K, 30000 kPa): 1121 ± 2.5 kg/m3 | mass density (308.15 K, 35000 kPa): 1122.5 ± 2.5 kg/m3 | mass density (308.15 K, 40000 kPa): 1124 ± 2.5 kg/m3 | mass density (308.15 K, 45000 kPa): 1125.5 ± 2.6 kg/m3 | mass density (308.15 K, 50000 kPa): 1126.9 ± 2.6 kg/m3 | mass density (313.15 K, 100 kPa): 1108.7 ± 2.4 kg/m3 | mass density (313.15 K, 5000 kPa): 1110.3 ± 2.4 kg/m3 | mass density (313.15 K, 10000 kPa): 1111.9 ± 2.4 kg/m3 | mass density (313.15 K, 15000 kPa): 1113.5 ± 2.5 kg/m3 | mass density (313.15 K, 20000 kPa): 1115.1 ± 2.5 kg/m3 | mass density (313.15 K, 25000 kPa): 1116.6 ± 2.5 kg/m3 | mass density (313.15 K, 30000 kPa): 1118.2 ± 2.5 kg/m3 | mass density (313.15 K, 35000 kPa): 1119.7 ± 2.5 kg/m3 | mass density (313.15 K, 40000 kPa): 1121.2 ± 2.5 kg/m3 | mass density (313.15 K, 45000 kPa): 1122.7 ± 2.5 kg/m3 | mass density (313.15 K, 50000 kPa): 1124.1 ± 2.6 kg/m3 | mass density (318.15 K, 100 kPa): 1105.9 ± 2.4 kg/m3 | mass density (318.15 K, 5000 kPa): 1107.5 ± 2.4 kg/m3 | mass density (318.15 K, 10000 kPa): 1109.1 ± 2.4 kg/m3 | mass density (318.15 K, 15000 kPa): 1110.7 ± 2.5 kg/m3 | mass density (318.15 K, 20000 kPa): 1112.3 ± 2.5 kg/m3 | mass density (318.15 K, 25000 kPa): 1113.8 ± 2.5 kg/m3 | mass density (318.15 K, 30000 kPa): 1115.4 ± 2.5 kg/m3 | mass density (318.15 K, 35000 kPa): 1116.9 ± 2.5 kg/m3 | mass density (318.15 K, 40000 kPa): 1118.4 ± 2.5 kg/m3 | mass density (318.15 K, 45000 kPa): 1119.9 ± 2.5 kg/m3 | mass density (318.15 K, 50000 kPa): 1121.4 ± 2.6 kg/m3 | mass density (323.15 K, 100 kPa): 1103 ± 2.4 kg/m3 | mass density (323.15 K, 5000 kPa): 1104.7 ± 2.4 kg/m3 | mass density (323.15 K, 10000 kPa): 1106.3 ± 2.4 kg/m3 | mass density (323.15 K, 15000 kPa): 1107.9 ± 2.4 kg/m3 | mass density (323.15 K, 20000 kPa): 1109.5 ± 2.5 kg/m3 | mass density (323.15 K, 25000 kPa): 1111 ± 2.5 kg/m3 | mass density (323.15 K, 30000 kPa): 1112.6 ± 2.5 kg/m3 | mass density (323.15 K, 35000 kPa): 1114.1 ± 2.5 kg/m3 | mass density (323.15 K, 40000 kPa): 1115.7 ± 2.5 kg/m3 | mass density (323.15 K, 45000 kPa): 1117.2 ± 2.5 kg/m3 | mass density (323.15 K, 50000 kPa): 1118.7 ± 2.5 kg/m3
